Source: ChEMBL document CHEMBL4837239, “Identification of Thieno[3,2-d]pyrimidine Derivatives as Dual Inhibitors of Focal Adhesion Kinase and FMS-like Tyrosine Kinase 3” (J Med Chem, 2021)
Active and inactive are the calls of the source. The calls are words filed in the database; no cut-off is given here.

Assays:
[1] = system: HCT-116; assay: Induction of apoptosis in human HCT-116 cells assessed as cleaved caspase-3 at 0.1 to 10 uM incubated for 24 hrs by Western blot analysis; type: functional, cell-based; details: dose 0.1-10 µM
[2] = biological target: Tyrosine-protein kinase Lck (Homo sapiens, UniProt P06239); assay: Inhibition of Lck (unknown origin)
Tyrosine-protein kinase Lck, sequence (P06239 whole entry): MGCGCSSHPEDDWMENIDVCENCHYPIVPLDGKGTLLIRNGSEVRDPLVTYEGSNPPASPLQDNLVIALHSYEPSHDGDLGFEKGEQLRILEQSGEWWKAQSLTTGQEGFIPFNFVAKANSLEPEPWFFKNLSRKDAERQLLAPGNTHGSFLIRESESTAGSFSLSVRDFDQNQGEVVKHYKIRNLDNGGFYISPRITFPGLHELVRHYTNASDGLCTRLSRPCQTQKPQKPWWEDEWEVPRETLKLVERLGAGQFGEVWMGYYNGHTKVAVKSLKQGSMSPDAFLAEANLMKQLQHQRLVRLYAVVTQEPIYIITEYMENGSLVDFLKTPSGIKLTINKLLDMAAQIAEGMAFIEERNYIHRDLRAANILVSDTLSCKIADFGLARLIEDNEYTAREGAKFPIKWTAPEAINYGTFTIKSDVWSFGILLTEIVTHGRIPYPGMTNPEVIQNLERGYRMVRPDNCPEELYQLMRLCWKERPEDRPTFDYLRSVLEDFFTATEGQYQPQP

[3] = biological target: T1, Focal adhesion kinase 1 (Homo sapiens, UniProt Q05397); assay: Inhibition of FAK autophosphorylation at Y925 in human MDA-MB-231 cells at 5 uM incubated for 24 hrs by Western blot analysis; type: cell-based
[4] = system: T2, Receptor-type tyrosine-protein kinase FLT3 (Homo sapiens), P36888 [D835Y]; assay: Inhibition of FLT3-D835Y mutant (unknown origin) expressed in mouse BaF3 cells assessed as decrease in STAT5 phosphorylation at 1 nM by Western blot analysis; type: cell-based
T2 sequence (whole entry): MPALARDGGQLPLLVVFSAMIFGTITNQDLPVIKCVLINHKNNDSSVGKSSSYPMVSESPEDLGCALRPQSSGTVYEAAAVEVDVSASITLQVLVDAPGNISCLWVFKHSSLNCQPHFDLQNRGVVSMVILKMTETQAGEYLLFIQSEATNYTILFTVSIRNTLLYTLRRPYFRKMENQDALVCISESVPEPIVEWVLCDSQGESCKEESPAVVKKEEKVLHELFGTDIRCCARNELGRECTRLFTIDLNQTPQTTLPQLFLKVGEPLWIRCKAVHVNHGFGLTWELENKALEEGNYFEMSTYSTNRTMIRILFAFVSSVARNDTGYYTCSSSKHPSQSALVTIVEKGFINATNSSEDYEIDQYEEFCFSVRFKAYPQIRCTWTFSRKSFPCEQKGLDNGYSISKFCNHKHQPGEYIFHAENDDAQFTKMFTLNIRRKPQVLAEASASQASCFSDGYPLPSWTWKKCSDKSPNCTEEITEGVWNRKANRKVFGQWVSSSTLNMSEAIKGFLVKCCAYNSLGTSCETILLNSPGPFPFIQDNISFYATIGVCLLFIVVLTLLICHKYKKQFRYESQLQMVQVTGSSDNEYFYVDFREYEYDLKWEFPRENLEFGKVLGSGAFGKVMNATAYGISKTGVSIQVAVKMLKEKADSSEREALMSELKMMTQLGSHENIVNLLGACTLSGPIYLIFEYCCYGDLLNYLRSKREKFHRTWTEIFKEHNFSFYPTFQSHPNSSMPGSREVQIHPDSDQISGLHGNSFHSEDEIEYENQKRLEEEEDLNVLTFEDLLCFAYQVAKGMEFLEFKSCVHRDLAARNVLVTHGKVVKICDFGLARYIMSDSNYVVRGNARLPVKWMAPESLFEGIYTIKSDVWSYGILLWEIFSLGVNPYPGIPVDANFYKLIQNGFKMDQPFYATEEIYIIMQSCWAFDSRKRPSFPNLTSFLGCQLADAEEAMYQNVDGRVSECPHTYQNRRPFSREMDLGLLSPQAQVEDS

[5] = biological target: Tyrosine-protein kinase Fes/Fps (Homo sapiens, UniProt P07332); assay: Inhibition of Fes (unknown origin) at 0.1 uM
Tyrosine-protein kinase Fes/Fps, sequence (P07332 whole entry): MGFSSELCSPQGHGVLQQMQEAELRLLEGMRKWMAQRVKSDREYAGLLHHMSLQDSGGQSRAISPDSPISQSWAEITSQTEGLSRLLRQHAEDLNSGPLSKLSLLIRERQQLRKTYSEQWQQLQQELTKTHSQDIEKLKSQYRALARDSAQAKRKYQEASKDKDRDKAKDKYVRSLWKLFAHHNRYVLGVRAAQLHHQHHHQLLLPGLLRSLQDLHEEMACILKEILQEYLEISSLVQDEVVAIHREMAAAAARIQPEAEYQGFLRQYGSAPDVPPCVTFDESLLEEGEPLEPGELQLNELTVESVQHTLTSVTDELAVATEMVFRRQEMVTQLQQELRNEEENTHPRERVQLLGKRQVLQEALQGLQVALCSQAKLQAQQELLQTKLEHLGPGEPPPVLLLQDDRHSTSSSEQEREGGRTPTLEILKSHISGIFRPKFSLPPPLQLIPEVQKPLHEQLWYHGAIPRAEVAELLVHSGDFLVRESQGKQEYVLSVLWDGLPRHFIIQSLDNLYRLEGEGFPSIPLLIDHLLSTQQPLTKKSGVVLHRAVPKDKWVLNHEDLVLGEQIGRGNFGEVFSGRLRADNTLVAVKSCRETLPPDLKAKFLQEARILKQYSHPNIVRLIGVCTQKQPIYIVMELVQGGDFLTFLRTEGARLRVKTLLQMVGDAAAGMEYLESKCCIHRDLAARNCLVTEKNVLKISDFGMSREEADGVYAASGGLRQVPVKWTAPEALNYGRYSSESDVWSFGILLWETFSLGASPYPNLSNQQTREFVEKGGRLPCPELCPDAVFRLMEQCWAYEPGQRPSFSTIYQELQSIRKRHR

[6] = system: HCT-116; assay: Growth inhibition of anchorage-Independent human HCT-116 cells assessed as decrease in size incubated for 72 hrs by MTT assay; type: functional, cell-based; details: dose 1-10 µM
[7] = system: MV4-11; assay: In vivo antitumor activity against human MV4-11 cells xenografted in mouse assessed as tumor weight at 50 mg/kg, po relative to control; type: functional, organism-based
[8] = biological target: T3, Tyrosine-protein kinase Fyn (Homo sapiens, UniProt P06241); assay: Inhibition of Fyn (unknown origin)
Target sequence in this assay (P06241 whole entry): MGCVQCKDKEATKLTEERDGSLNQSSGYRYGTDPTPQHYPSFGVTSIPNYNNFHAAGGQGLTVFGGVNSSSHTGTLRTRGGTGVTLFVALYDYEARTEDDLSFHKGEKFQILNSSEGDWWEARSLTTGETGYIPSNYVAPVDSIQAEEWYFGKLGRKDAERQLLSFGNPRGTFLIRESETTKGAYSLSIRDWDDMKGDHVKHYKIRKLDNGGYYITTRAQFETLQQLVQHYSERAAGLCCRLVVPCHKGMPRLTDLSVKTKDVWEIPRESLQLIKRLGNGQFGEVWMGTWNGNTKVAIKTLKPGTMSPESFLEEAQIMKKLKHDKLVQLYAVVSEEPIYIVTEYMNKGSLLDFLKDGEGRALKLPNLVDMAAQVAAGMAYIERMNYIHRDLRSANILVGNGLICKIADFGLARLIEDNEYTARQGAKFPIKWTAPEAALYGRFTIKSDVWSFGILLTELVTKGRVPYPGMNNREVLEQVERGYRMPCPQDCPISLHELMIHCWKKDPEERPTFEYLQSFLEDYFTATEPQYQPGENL

[9] = system: MDA-MB-231; assay: Antimetastatic activity against human MDA-MB-231 cells expressing firefly luciferase xenografted NSG orthotopic mouse model assessed as reduction in luminescence intensity at axillary lymph node at 70 mg/kg, po once daily measured for 2 weeks; type: functional, organism-based
[10] = Inhibition of FLT3 D835Y (unknown origin); set-up: species or system Homo sapiens
[11] = biological target: T4, CYP1A2 (Homo sapiens, UniProt P05177); assay: Inhibition of CYP1A2 (unknown origin) at 10 uM relative to control; type: ADME
T4 sequence (P05177 whole entry): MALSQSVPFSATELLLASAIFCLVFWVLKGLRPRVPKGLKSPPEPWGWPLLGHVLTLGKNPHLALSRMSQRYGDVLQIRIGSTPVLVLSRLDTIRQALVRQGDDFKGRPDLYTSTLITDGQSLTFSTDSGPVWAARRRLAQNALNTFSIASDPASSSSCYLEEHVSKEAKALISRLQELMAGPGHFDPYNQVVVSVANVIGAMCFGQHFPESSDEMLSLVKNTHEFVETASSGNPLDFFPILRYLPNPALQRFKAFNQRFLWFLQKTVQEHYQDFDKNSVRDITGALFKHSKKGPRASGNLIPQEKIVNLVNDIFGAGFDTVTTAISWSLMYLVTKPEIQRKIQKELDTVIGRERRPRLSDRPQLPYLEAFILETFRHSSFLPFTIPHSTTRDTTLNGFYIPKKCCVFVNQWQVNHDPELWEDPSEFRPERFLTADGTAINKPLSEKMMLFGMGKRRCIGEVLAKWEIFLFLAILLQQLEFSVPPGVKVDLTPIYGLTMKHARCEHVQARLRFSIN

[12] = Antiproliferative activity against human A375P cells assessed as growth inhibition measured after 72 hrs by CellTiter-Glo assay; type: functional; details: Homo sapiens, A375P
[13] = biological target: T5, Epithelial discoidin domain-containing receptor 1 (Homo sapiens, UniProt Q08345); assay: Inhibition of DDR1 (unknown origin)
T5 sequence (Q08345 whole entry, the tested form may be a part): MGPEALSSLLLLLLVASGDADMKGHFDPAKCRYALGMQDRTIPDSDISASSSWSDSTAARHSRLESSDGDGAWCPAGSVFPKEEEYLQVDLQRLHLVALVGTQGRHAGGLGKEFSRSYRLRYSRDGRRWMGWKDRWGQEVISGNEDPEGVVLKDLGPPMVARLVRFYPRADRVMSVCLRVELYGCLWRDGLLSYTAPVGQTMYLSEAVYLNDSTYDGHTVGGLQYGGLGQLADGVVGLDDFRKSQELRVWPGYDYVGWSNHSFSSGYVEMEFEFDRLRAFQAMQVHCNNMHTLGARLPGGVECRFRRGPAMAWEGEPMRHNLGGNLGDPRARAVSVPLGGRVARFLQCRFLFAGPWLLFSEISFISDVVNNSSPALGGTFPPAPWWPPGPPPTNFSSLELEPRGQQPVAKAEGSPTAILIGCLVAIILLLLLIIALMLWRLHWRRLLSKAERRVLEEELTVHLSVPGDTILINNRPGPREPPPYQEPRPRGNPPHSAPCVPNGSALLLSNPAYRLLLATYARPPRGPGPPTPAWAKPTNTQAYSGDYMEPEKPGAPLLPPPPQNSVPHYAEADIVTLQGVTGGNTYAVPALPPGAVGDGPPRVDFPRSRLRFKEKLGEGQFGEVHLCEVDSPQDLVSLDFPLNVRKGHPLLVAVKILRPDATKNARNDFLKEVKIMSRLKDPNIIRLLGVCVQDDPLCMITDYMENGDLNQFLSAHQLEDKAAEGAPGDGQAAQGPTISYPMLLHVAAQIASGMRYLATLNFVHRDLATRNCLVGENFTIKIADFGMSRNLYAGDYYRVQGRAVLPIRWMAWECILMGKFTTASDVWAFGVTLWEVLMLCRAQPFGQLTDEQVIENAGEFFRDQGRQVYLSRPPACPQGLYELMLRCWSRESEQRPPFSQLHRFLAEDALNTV

[14] = Metabolic stability in human liver microsomes assessed as compound remaining at 1 uM measured after 1 hr; type: ADME, Microsome; details: read-out: Stabilty
[15] = system: NCI-H23; assay: Antiproliferative activity against human NCI-H23 cells assessed as growth inhibition measured after 72 hrs by MTT assay; type: functional, cell-based
[16] = system: MDA-MB-231; assay: Antimetastatic activity against human MDA-MB-231 cells expressing firefly luciferase xenografted NSG orthotopic mouse model assessed as reduction in luminescence intensity at chest region at 70 mg/kg, po once daily measured for 2 weeks; type: functional, organism-based
[17] = biological target: T3, Tyrosine-protein kinase Fyn; assay: Inhibition of Fyn (unknown origin) at 0.1 uM
Target sequence in this assay (P06241 2-537 limits assumed): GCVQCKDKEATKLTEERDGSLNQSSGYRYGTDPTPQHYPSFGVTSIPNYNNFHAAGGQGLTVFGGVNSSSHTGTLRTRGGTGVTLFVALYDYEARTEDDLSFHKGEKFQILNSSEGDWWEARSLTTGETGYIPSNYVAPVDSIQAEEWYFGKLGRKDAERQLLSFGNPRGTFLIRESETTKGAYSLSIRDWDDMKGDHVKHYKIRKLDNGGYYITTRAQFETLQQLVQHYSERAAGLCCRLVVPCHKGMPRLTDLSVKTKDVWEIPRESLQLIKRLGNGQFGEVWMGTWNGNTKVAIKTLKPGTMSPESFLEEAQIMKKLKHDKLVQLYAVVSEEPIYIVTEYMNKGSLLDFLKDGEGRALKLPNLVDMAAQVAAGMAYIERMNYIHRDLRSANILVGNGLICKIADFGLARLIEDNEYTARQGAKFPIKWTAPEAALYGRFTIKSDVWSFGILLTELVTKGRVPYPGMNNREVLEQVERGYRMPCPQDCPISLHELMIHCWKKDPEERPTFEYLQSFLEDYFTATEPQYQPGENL

[18] = system: T2, Receptor-type tyrosine-protein kinase FLT3 (Homo sapiens), P36888 [D835Y]; assay: Inhibition of FLT3-D835Y mutant (unknown origin) expressed in mouse Ba/F3 cells assessed as decrease in STAT5 phosphorylation at 10 nM by Western blot analysis; type: cell-based; details: BaF3
[19] = biological target: T5, Epithelial discoidin domain-containing receptor 1; assay: Inhibition of DDR1 (unknown origin) at 0.1 uM
[20] = system: MDA-MB-231; assay: Antitumor activity against human MDA-MB-231 cells xenografted in Balb/c mouse assessed as decrease in ki67 at 40 to 70 mg/kg, po once daily measured for 16 days by Immunohistochemical analysis; type: functional, organism-based; details: dose 40-70 mg/kg, time 16.0 day
[21] = system: MDA-MB-231; assay: Induction of morphological changes in human MDA-MB-231 cells at 10 uM measured within 2 hrs by fluorescence analysis; type: functional, cell-based; details: time hrs <=2
[22] = biological target: T1, Focal adhesion kinase 1; assay: Inhibition of recombinant FAK (unknown origin) by radiometric kinase assay
Target sequence in this assay (Q05397 whole entry): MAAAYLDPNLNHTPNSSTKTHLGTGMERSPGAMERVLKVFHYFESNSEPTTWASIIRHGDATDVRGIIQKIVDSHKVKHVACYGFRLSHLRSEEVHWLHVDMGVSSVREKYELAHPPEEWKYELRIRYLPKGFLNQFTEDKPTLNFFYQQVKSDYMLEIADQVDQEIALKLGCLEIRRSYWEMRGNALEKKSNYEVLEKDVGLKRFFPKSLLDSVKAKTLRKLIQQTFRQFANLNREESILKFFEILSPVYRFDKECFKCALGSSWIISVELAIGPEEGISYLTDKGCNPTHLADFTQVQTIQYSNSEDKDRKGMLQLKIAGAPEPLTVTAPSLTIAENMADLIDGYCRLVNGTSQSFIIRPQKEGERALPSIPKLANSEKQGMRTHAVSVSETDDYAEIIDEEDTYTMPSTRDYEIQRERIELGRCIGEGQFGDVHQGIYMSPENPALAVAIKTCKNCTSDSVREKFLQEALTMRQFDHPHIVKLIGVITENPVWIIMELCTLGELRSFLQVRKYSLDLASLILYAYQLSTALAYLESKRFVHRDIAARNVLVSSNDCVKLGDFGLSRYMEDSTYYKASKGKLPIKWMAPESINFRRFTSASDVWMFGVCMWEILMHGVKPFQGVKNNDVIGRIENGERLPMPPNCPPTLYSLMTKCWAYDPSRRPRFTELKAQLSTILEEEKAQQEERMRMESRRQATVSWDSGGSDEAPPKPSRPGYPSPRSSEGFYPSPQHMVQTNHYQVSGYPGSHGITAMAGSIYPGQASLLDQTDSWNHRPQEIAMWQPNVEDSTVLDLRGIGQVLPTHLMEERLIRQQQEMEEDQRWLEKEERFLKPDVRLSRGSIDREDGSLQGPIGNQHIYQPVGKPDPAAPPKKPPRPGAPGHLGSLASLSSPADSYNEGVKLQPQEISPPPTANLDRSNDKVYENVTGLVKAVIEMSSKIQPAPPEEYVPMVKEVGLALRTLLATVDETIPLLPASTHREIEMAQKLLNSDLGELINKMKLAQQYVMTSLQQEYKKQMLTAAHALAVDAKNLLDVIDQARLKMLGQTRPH

[23] = system: MDA-MB-231; assay: Antiproliferative activity against human MDA-MB-231 cells assessed as growth inhibition measured after 72 hrs by CellTiter-Glo assay; type: functional; details: Homo sapiens, MDA-MB-231

IC50 [2]: 7.8 nM
inhibition [3]: Active
inhibition [4]: Active
inhibition [5]: 95%
IC50 [8]: 7.7 nM
IC50 [10]: < 0.5 nM
inhibition at 10 µM [11]: 89.2%
IC50 [13]: 4.4 nM
remaining at 1 h, 1 µM [14]: 80.2%
inhibition [17]: 92%
inhibition [18]: 100%
inhibition [19]: 97%
IC50 [22]: 7 nM
GI50 [23]: 470 nM
Compound: CCN1CCN(c2ccc(Nc3ncc4scc(-c5cccc(NS(C)(=O)=O)c5)c4n3)cc2)CC1
Activity [1]: Active
growth inhibition (GI) [6]: Active
Activity [7]: Active
Activity [9]: Active
GI50 [12]: 370 nM
Activity [15]: Active
Activity [16]: Active
Activity [20]: Active
Activity [21]: Active
